From US11517617B2, “Methods and compositions for preventing influenza infection” (THE UNIVERSITY OF MELBOURNE, priority 2017, dated 2022)
No end group written: not given here.

Tests used:
[1] = tested on: CD8^+ T cells; type: cell-based, human
[2] = tested on: memory CD8^+ T cells within PBMCs; type: cell-based, human

| Sequence | additional low avidity CD8^+ T cells detected by Q115E staining [1] | cross-reactivity of CD8^+ T cells after in vitro expansion with the peptide [2] | recognition of IBV-derived variant by IAV-expanded CD8^+ T cells [2] |
| --- | --- | --- | --- |
| GILGFVFVL [M158-66, GILGFVFVL, reference compound] | could be detected | – | – |
| VADGGPNIY (Influenza B virus) [BPB1590-598, IBV variant of PB1591-599] | – | could not expand CD8^+ T cells | to a lesser extent |
| VSDGGPNLY (Influenza A virus) [PB1591-599] | – | recognizing both IAV- and IBV-derived peptides | – |
